Source: PMC9501014, “Amaryllidaceae-Type Alkaloids from Pancratium maritimum: Apoptosis-Inducing Effect and Cell Cycle Arrest on Triple-Negative Breast Cancer Cells” (Molecules, 2022)

Assays:
MCF12A cells = test: Sulforhodamine B antiproliferative assay, non-tumorigenic breast MCF12A; format: cell-based; details: Homo sapiens, MCF-12A, 48 h of treatment, read-out: IC50 MCF12A (D)
Description: The antiproliferative effect of the isolated compounds (1–11) was investigated by the sulforhodamine B assay against human triple-negative breast cancer cell lines (MDA-MB-468 and MDA-MB-231) and breast ductal carcinoma cells (MCF-7) and the non-tumorigenic fibroblast (HFF-1) and breast cell lines (MCF12A). The IC50 values were determined after 48 h of treatment (Table 1).
Human breast adenocarcinoma MDA-MB-231, MDA-MB-468, and MCF-7 cell lines and non-tumorigenic foreskin fibroblast (HFF-1) and breast (MCF12A) cell lines were purchased from American Type Culture Collection (ATCC, Rockville, MD, USA). All cancer cell lines, except MCF12A, were routinely cultured in RPMI-1640 medium with glutamine from Corning (VWR, Carnaxide, Portugal) supplemented with 10% fetal bovine serum (FBS) from Biowest (Labclinics, Barcelona, Spain). MCF12A cells were cultured in a 1:1 mixture of Dulbecco’s modified Eagle’s medium and Ham’s F12 medium, 20 ng/mL human epidermal growth factor, 100 ng/mL cholera toxin, 0.01 mg/mL bovine insulin, and 500 ng/mL hydrocortisone and supplemented with 10% FBS. All cells were maintained in a humidified incubator at 37 °C with 5% CO2. All cells were routinely tested for mycoplasma contamination using the MycoAlertTM PLUS detection kit (Lonza, Basel, Switzerland).
Human cell lines were seeded in 96-well plates at a density of 5.0 × 10^3 (MDA-MB-231, MCF-7, HFF-1, and MCF12A) and 7.5 × 10^3 (MDA-MB-468) cells/well and allowed to adhere for 24 h. Cells were treated with serial dilutions of compounds (ranging from 0.1 to 40 μM) for an additional 48 h. Effect on cell proliferation was measured by sulforhodamine B assay, as described in [33], and the half-maximal inhibitory concentration (IC50) was then determined for each cell line using the GraphPad Prism software version 7.0 (La Jolla, CA, USA).

MDA-MB-231 cells [1] = test: Cell cycle analysis by flow cytometry (PI); format: cell-based, human; details: 16 µM (2 × IC50), vs vehicle control; 24 h / 48 h
Description: To explore the ability of compound 7 to regulate cell cycle progression, the percentage of cells in different phases was analyzed after 24 h of exposure.
Figure 2 Compound 7 induced cell cycle arrest, apoptosis, and ROS production, in MDA-MB-231 cells. […] (B) Effect of 16 µM of compound 7 on cell cycle progression after 48 h of treatment in MDA-MB-231 cells; the percentage of cells in each phase of the cell cycle was analyzed by flow cytometry, using PI; data are mean ± SEM of three independent experiments. […] (C) Effect of 16 µM of compound 7 on apoptosis after 48 h of treatment; the percentage of Annexin-positive cells was analyzed by flow cytometry using PI and Annexin-V staining; data are mean ± SEM of three independent experiments. […] (F) The graph represents the quantification of protein expression levels relative to DMSO; data are mean ± SD of three independent experiments. The ability of compound 7 to induce apoptosis in this cell line was also assessed by cytometry, using the Annexin V-FITC assay after 48 h of treatment. […]
The analyses were performed basically as described in [33]. […] The cells were then analyzed by flow cytometry, and cell cycle phases were identified and quantified using the FlowJo × 10.0.7 Software (Treestar, Ashland, OR, USA). […]

[2] = test system: Bax, Bcl-xL, p21, p53 protein expression in MDA-MB-231 cells; test: Western blot analysis of protein expression levels; format: cell-based, human; details: 16 µM, 48 h
Description: Once compound 7 induced cancer cell death by apoptosis, we next explored the molecular pathways involved in its apoptotic effect. For that, some apoptotic-related proteins were checked in MDA-MB-231 cells treated with 16 µM of compound 7 for 48 h (Figure 2E,F).
MDA-MB-231 cells were seeded in 6-well plates at a density of 1.5 × 10^5 cells/well for 24 h, followed by treatment with 16 µM of compound 7. Protein extracts were quantified using the Bradford reagent (Sigma-Aldrich). Proteins were run in SDS-PAGE and transferred to a Whatman nitrocellulose membrane from Protan (VWR, Carnaxide, Portugal). After blocking, proteins were identified using specific primary antibodies: rabbit polyclonal anti-p21 (Santa Cruz Biotechnology, Dallas, […], USA), rabbit polyclonal anti-Bax, and rabbit monoclonal anti-Bcl-xL (Invitrogen, Waltham, MA, USA), followed by the respective anti-mouse/anti-rabbit HRP-conjugated secondary antibodies (Santa Cruz Biotechnology). GAPDH was used as a loading control. The signal was detected with the ECL Amersham kit from GE Healthcare (VWR, Carnaxide, Portugal). Two detection methods were used: the Kodak GBX developer and fixer (Sigma-Aldrich) or the ChemiDoc™ XRS Imaging System from Bio-Rad Laboratories (Amadora, Portugal).

MDA-MB-231 cells [3] = test: Combination therapy with etoposide (SRB, CompuSyn), MDA-MB-231; format: cell-based, human
Description: The effect of 1.5 μM of compound 7 in combination with a range of concentrations of etoposide was evaluated after 48 h of treatment using CompuSyn software to calculate the combination index (CI) values for each combined treatment: CI < 1, synergy; 1 < CI < 1.1, additive effect; CI > 1.1, antagonism.
The effect of combined treatments on cell proliferation was analyzed by SRB assay. For each combination, the combination index (CI) values were calculated using the CompuSyn Software version 1.0; CI values < 1, 1 < CI < 1.1, and >1.1 indicate synergistic, additive, and antagonistic effects, respectively.

Compound: COc1cc2c(cc1O)C(=O)OC1[C@@H](O)C=C3CCN(C)C3[C@]21O (stereo partly drawn) [Compound 7, 2α-10bα-dihydroxy-9-O-demethylhomolycorine]
- IC50 (MCF12A cells): 5.6 ± 0.8 µM
- cell cycle progression (MDA-MB-231 cells [1]): significant accumulation of cells in the G2/M phase
- Bax protein levels ([2]; MDA-MB-231): increased levels
- Bcl-xL protein levels ([2]; MDA-MB-231): reduced levels
- p21 protein levels ([2]; MDA-MB-231): increased the p21 protein levels
- p53 protein expression levels ([2]; MDA-MB-231, data not shown): did not interfere
- Combination Index MDA-MB-231 (MDA-MB-231 cells [3]; 1.5 µM compound 7 + etoposide 0.4 µM, 48 h): 1.23
- Combination Index MDA-MB-231 (MDA-MB-231 cells [3]; 1.5 µM compound 7 + etoposide 0.8 µM, 48 h): 0.87
- Combination Index MDA-MB-231 (MDA-MB-231 cells [3]; 1.5 µM compound 7 + etoposide 1.5 µM, 48 h): 0.81
- Combination Index MDA-MB-231 (MDA-MB-231 cells [3]; 1.5 µM compound 7 + etoposide 3 µM, 48 h): 0.86
- type of interaction with etoposide, MDA-MB-231 (MDA-MB-231 cells [3]; 1.5 µM compound 7, etoposide 0.8, 1.5 and 3 µM): synergistic effects
- effect on growth inhibitory effect of etoposide (MDA-MB-231 cells [3]; 1.5 µM compound 7, etoposide 0.8, 1.5 and 3 µM, 48 h): significantly increased the growth inhibitory effect of etoposide
